# Data published in patent US9186344B2, “Glycogen or polysaccharide storage disease treatment method” (Baylor Research Institute, priority 2004, dated 2015).
# How the values were obtained:
# [1] = tested on: adult-onset GSD II patient; assay: Urinary organic acids / blood acylcarnitines, Example 1 patient; assay type: in vivo, human; details: C7 increased from 26 to 40% of total caloric intake (1.0 to 2.0 gm/Kg/day)
# Experimental: Organic Acids may be measured as follows. Organic acids in urine specimens are determined with isolation by Liquid Partition Chromatography (LPC) and quantitative Gas Chromatography-Mass Spectrometry (GCMS) using an internal standard. The specimen is derivatized to form pentafluorobenzyl oximes (PFBO) of oxo-acids and the organic acids isolated by Liquid Partition chromatography on silicic acid hydrated with dilute sulfuric acid and eluted with mixtures of tert-Amyl alcohol and chloroform. After drying, the organic acids are derivatized to form volatile trimethylsilyl (TMS) derivatives for separation by capillary Gas Chromatography (GC) with temperature programming. Detection is by Mass Spectrometry (MS) with identification of the organic acids by their mass spectra. Organic acids are quantified by peak areas of reconstructed ion chromatograms with internal standards and calibration curves.
# Acylcarnitine Profiles. […] An automated sample introduction system delivers the samples to the electrospray tandem mass spectrometer (ESI-MS/MS) operating in the multiple channel analysis mode in which acylcarnitines are identified, profiled, and quantified with stable isotopically labeled internal standards. This test also provides quantification of free, sum of acylcarnitines, and total carnitine levels. […]
# [2] = tested on: polysaccharide storage myopathy (PSSM); assay: Treatment of horses with polysaccharide storage myopathy with triheptanoin diet; assay type: in vivo, horse
# Experimental: Treatment of Horses. […] The first was an 8 year old mare who was unable to walk or exercise without severe muscle pain, rhabdomyolysis, and “locking up.” The owners were approaching “putting the animal down” (killing it). […] A second horse was encountered at 4 months with proven polysaccharide storage myopathy (PSSM) that was not able to walk adequately or nurse from its mother. The owners were prepared to kill the animal but decided to try the triheptanoin diet first. […] A third horse, also an 8 year old mare, developed PSSM and “locked up.” She was no longer available to ride and could no longer jump.
# [3] = tested on: Adult-Onset Glycogen Storage Disease II (Pompe's) patient; assay: Plasma amino acids during initiation of anaplerotic therapy (C7 diet), Example 1 patient; assay type: in vivo, human; details: for Plasma ASPARTATE: normal (0-10); for Plasma CITRULLINE: normal (11-51); for Plasma ARGININE: normal (20-122); for Plasma TRYPTOPHAN: normal (23-86); for Plasma TYROSINE: normal (30-100); for Plasma PHENYLALANINE: normal (35-83); for Plasma ORNITHINE: normal (36-118); for Plasma ISOLEUCINE: normal (39-119); for Plasma LEUCINE: normal (60-204); for Plasma VALINE: normal (108-295); for Plasma ALANINE: normal (162-572); for Plasma GLUTAMINE: normal (424-720); for Plasma Total Amino Acids: normal (1540-4415)
# Excerpt: Clinical and Biochemical Course on Therapy. […] Esophageal dysmotility was documented. A percutaneous endoscopic gastrostomy (PEG) was placed on the sixth hospital day.
# The diet was based on vivonex and ˜1500 Kcal was given by nasogastric tube, on admission. […] Total caloric intake was raised from ˜1500 to 1700 to 1900 per day with these dietary changes during […] 33 day admission.
# The levels of Alanine and Glutamine were low compared to the adult normal ranges. While the levels of the branched-chain amino acids (BCAA=Leucine, Valine, & Isoleucine) were within the adult normal ranges. The reduced levels of Alanine and Glutamine have been observed often in this disease and has led to the high protein—low carbohydrate diet and/or alanine supplementation. […] Glutamine increased nearly 2-fold as did the branched chain amino acids (BCAAs). The levels of these amino acids remained in the normal range while receiving the C7 diet. However, the diet was interrupted on day 4 & 5 while awaiting placement of the PEG for gastrostomy feeding. The levels of each of these amino acids promptly fell to admission levels (Table 2: 65 & 84 hour samples). With resumption of the diet via gastrostomy, all levels returned to (or above) the normal ranges in 24 hours. These amino acid levels remained normal on this odd-carbon triglyceride diet therapy.
# [4] = thirteen hours after initiating the C7 diet
smiles,measurement,setting,value
"CCCCCCC(=O)OCC(COC(=O)CCCCCC)OC(=O)CCCCCC [C7, triheptanoin]",propionyl overload from the metabolism of heptanoate,[1],without any evidence for propionyl overload
same,time to become asymptomatic,"[2]; first horse, 8 year old mare, triheptanoin in feed pellets",≤ 30 days
same,blood enzyme levels related to muscle disease (including serum creatine phosphokinase),"[2]; second horse, 4 month foal",had normalized
same,time to running and playing without muscle pain,"[2]; second horse, 4 month foal",≤ 24 h
same,symptoms after adjustment of the dose for weight gain,"[2]; second horse, dose back to 2 grams/Kg body weight",eliminated all symptoms
same,clinical status,"[2]; third horse, 8 year old mare, 1.0 gm/Kg/day, one week of diet treatment",asymptomatic with normal blood chemistry levels
same,Plasma ASPARTATE,"[3]; 13 hrs, C7 = 1.0 gm/Kg",44 µM
same,Plasma CITRULLINE,"[3]; 13 hrs, C7 = 1.0 gm/Kg",1 µM
same,Plasma ARGININE,"[3]; 13 hrs, C7 = 1.0 gm/Kg",96 µM
same,Plasma TRYPTOPHAN,"[3]; 13 hrs, C7 = 1.0 gm/Kg",121 µM
same,Plasma TYROSINE,"[3]; 13 hrs, C7 = 1.0 gm/Kg",110 µM
same,Plasma PHENYLALANINE,"[3]; 13 hrs, C7 = 1.0 gm/Kg",101 µM
same,Plasma ORNITHINE,"[3]; 13 hrs, C7 = 1.0 gm/Kg",78 µM
same,Plasma ISOLEUCINE,"[3]; 13 hrs, C7 = 1.0 gm/Kg",81 uM/L
same,Plasma LEUCINE,"[3]; 13 hrs, C7 = 1.0 gm/Kg",154 uM/L
same,Plasma VALINE,"[3]; 13 hrs, C7 = 1.0 gm/Kg",333 uM/L
same,Plasma ALANINE,"[3]; 13 hrs, C7 = 1.0 gm/Kg",551 uM/L
same,Plasma GLUTAMINE,"[3]; 13 hrs, C7 = 1.0 gm/Kg",827 uM/L
same,Plasma Total Amino Acids,"[3]; 13 hrs, C7 = 1.0 gm/Kg",3673 µM
same,Plasma ASPARTATE,"[3]; 41 hrs, C7 = 1.0 gm/Kg",112 µM
same,Plasma CITRULLINE,"[3]; 41 hrs, C7 = 1.0 gm/Kg",43 µM
same,Plasma ARGININE,"[3]; 41 hrs, C7 = 1.0 gm/Kg",93 µM
same,Plasma TRYPTOPHAN,"[3]; 41 hrs, C7 = 1.0 gm/Kg",43 µM
same,Plasma TYROSINE,"[3]; 41 hrs, C7 = 1.0 gm/Kg",62 µM
same,Plasma PHENYLALANINE,"[3]; 41 hrs, C7 = 1.0 gm/Kg",156 µM
same,Plasma ORNITHINE,"[3]; 41 hrs, C7 = 1.0 gm/Kg",163 µM
same,Plasma ISOLEUCINE,"[3]; 41 hrs, C7 = 1.0 gm/Kg",138 uM/L
same,Plasma LEUCINE,"[3]; 41 hrs, C7 = 1.0 gm/Kg",266 uM/L
same,Plasma VALINE,"[3]; 41 hrs, C7 = 1.0 gm/Kg",384 uM/L
same,Plasma ALANINE,"[3]; 41 hrs, C7 = 1.0 gm/Kg",450 uM/L
same,Plasma GLUTAMINE,"[3]; 41 hrs, C7 = 1.0 gm/Kg",424 uM/L
same,Plasma Total Amino Acids,"[3]; 41 hrs, C7 = 1.0 gm/Kg",4160 µM
same,Plasma ASPARTATE,"[3]; 108 hrs, C7 = 1.5 gm/Kg",50 µM
same,Plasma CITRULLINE,"[3]; 108 hrs, C7 = 1.5 gm/Kg",35 µM
same,Plasma ARGININE,"[3]; 108 hrs, C7 = 1.5 gm/Kg",102 µM
same,Plasma TRYPTOPHAN,"[3]; 108 hrs, C7 = 1.5 gm/Kg",40 µM
same,Plasma TYROSINE,"[3]; 108 hrs, C7 = 1.5 gm/Kg",56 µM
same,Plasma PHENYLALANINE,"[3]; 108 hrs, C7 = 1.5 gm/Kg",90 µM
same,Plasma ORNITHINE,"[3]; 108 hrs, C7 = 1.5 gm/Kg",122 µM
same,Plasma ISOLEUCINE,"[3]; 108 hrs, C7 = 1.5 gm/Kg",144 uM/L
same,Plasma LEUCINE,"[3]; 108 hrs, C7 = 1.5 gm/Kg",238 uM/L
same,Plasma VALINE,"[3]; 108 hrs, C7 = 1.5 gm/Kg",304 uM/L
same,Plasma ALANINE,"[3]; 108 hrs, C7 = 1.5 gm/Kg",307 uM/L
same,Plasma GLUTAMINE,"[3]; 108 hrs, C7 = 1.5 gm/Kg",584 uM/L
same,Plasma Total Amino Acids,"[3]; 108 hrs, C7 = 1.5 gm/Kg",3568 µM
same,Plasma ASPARTATE,"[3]; 132 hrs, C7 = 1.5 gm/Kg",42 µM
same,Plasma CITRULLINE,"[3]; 132 hrs, C7 = 1.5 gm/Kg",25 µM
same,Plasma ARGININE,"[3]; 132 hrs, C7 = 1.5 gm/Kg",97 µM
same,Plasma TRYPTOPHAN,"[3]; 132 hrs, C7 = 1.5 gm/Kg",40 µM
same,Plasma TYROSINE,"[3]; 132 hrs, C7 = 1.5 gm/Kg",46 µM
same,Plasma PHENYLALANINE,"[3]; 132 hrs, C7 = 1.5 gm/Kg",84 µM
same,Plasma ORNITHINE,"[3]; 132 hrs, C7 = 1.5 gm/Kg",95 µM
same,Plasma ISOLEUCINE,"[3]; 132 hrs, C7 = 1.5 gm/Kg",128 uM/L
same,Plasma LEUCINE,"[3]; 132 hrs, C7 = 1.5 gm/Kg",220 uM/L
same,Plasma VALINE,"[3]; 132 hrs, C7 = 1.5 gm/Kg",269 uM/L
same,Plasma ALANINE,"[3]; 132 hrs, C7 = 1.5 gm/Kg",277 uM/L
same,Plasma GLUTAMINE,"[3]; 132 hrs, C7 = 1.5 gm/Kg",519 uM/L
same,Plasma Total Amino Acids,"[3]; 132 hrs, C7 = 1.5 gm/Kg",3296 µM
same,time to restoration of Alanine and Glutamine deficits,"[3]; FIG. 5, Triheptanoin diet only",≤ 13 h
same,time for amino acid levels to return to (or above) normal ranges,[3]; after resumption of the diet via gastrostomy,≤ 24 h
same,increase of plasma Glutamine,[3]; [4],~2 fold
same,increase of plasma branched chain amino acids (BCAAs),[3]; [4],~2 fold
same,increase of plasma alanine level,[3]; thirteen hours after initiating the C7 diet by nasogastric tube,4 fold
